For data set [1], the target named is T1, Neuromedin-U receptor 1 (Homo sapiens) (UniProt Q9HB89).
T1 sequence (whole entry): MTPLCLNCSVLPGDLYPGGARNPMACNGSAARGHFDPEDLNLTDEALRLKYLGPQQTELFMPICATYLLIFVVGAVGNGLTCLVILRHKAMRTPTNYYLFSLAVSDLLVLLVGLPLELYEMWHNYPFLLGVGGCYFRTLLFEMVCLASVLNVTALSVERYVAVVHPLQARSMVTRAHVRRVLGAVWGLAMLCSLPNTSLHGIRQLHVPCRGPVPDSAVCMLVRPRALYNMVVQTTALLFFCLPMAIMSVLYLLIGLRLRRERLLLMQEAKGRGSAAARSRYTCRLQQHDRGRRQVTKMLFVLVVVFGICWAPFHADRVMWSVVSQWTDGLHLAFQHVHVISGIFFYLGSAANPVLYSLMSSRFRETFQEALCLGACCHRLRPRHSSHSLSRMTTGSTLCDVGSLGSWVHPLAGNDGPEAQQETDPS
As to the kind of experiment: Agonist activity at human NMUR1 expressed in CHO cells at 10 nM by Fluo-4-AM dye based calcium mobilization assay. Format: functional, cell-based. On the technique in general: A change in cytosolic calcium serves as a functional read-out for many receptors and channels.

The target of data set [2] is T2, Neuromedin-U receptor 2 (Homo sapiens, UniProt Q9GZQ4). The experiment in a line: Agonist activity at human NMUR2 expressed in CHO cells at 10 nM by Fluo-4-AM dye based calcium mobilization assay. Format: functional, cell-based.
Data set [3] concerns the target T1, Neuromedin-U receptor 1 (Homo sapiens). As to the kind of experiment: Agonist activity at human NMUR1 expressed in CHO cells at 100 nM by Fluo-4-AM dye based calcium mobilization assay. It counts as functional, cell-based.
For data set [4], the target named is T2, Neuromedin-U receptor 2. As to the kind of experiment: Agonist activity at human NMUR2 expressed in CHO cells at 100 nM by Fluo-4-AM dye based calcium mobilization assay. It counts as functional, cell-based.
In data set [5] the target is T1, Neuromedin-U receptor 1 (Homo sapiens). As to the kind of experiment: Agonist activity at human NMUR1 expressed in CHO cells at 1 nM by Fluo-4-AM dye based calcium mobilization assay. Format: functional, cell-based.
Data set [6] concerns the target T2, Neuromedin-U receptor 2. As to the kind of experiment: Agonist activity at human NMUR2 expressed in CHO cells at 1 nM by Fluo-4-AM dye based calcium mobilization assay. Format: functional, cell-based.
Data set [7] deals with Neuromedin-U receptor 2 (Mus musculus) (UniProt Q8BZ39). The experiment in a line: Agonist activity at mouse NMUR2 expressed in human HEK293 cells at 10 nM Fluo-4-AM dye based calcium mobilization assay relative to control. It counts as functional, cell-based.
The nature of data set [8]: Chemical stability of compound in pH 5.5 citrate buffer at 50 uM assessed as compound recovery after 72 hrs by spectrometric analysis. The conditions noted are these: read-out: Drug recovery. It counts as physicochemical.
The nature of data set [9]: Chemical stability of compound in pH 7.4 phosphate buffer at 50 uM assessed as compound recovery after 72 hrs by spectrometric analysis. It counts as physicochemical. The conditions noted are these: read-out: Drug recovery.
For data set [10], the target named is T2, Neuromedin-U receptor 2. As to the kind of experiment: Agonist activity at human NMUR2 expressed in CHO cells by Fluo-4-AM dye based calcium mobilization assay. It counts as functional, cell-based.
The target of data set [11] is Neuromedin-U receptor 2 (Mus musculus) (UniProt Q8BZ39). The experiment in a line: Agonist activity at mouse NMUR2 expressed in human HEK293 cells Fluo-4-AM dye based calcium mobilization assay. It counts as functional, cell-based.
Data set [12] can be described thus: Toxicity in ddY mouse assessed as reduction in body weight gain at 25 to 250 ug intranasal administration. The conditions noted are these: in vivo, inhaled_or_intranasal.
Data set [13] can be described thus: Toxicity in ddY mouse assessed as reduction in body weight gain at 20 ug ,ip. The conditions noted are these: in vivo.
Data set [14] in a line: Chemical stability of compound in pH 7.4 HEPES buffer at 50 uM assessed as compound recovery after 72 hrs by spectrometric analysis. It counts as physicochemical. The conditions noted are these: read-out: Drug recovery.
The nature of data set [15]: Chemical stability of compound in pH 5.5 citrate-posphate buffer at 50 uM assessed as compound recovery after 72 hrs by spectrometric analysis. It counts as physicochemical. The conditions noted are these: citrate-phosphate buffer, read-out: Drug recovery.
Data set [16] is described as follows: Chemical stability of compound in pH 5.5 acetate buffer at 50 uM assessed as compound recovery after 72 hrs by spectrometric analysis. It counts as physicochemical. The conditions noted are these: read-out: Drug recovery.
A short description of data set [17]: Chemical stability of compound in MES buffer pH 5.5 at 100 mM assessed as compound recovery after 72 hrs by spectrometric analysis. The conditions noted are these: read-out: Drug recovery. Format: physicochemical.

Activity calls are given as the source filed them. No cut-off for these calls is given here. Square brackets hold non-standard residues; d marks the D form. Side chains are listed from the residue outwards. Peptide text beside a SMILES is read from it. * marks the point of attachment. Propanoyl(3-cHex) = O=C(CCC1CCCCC1)*; 2Pal = N[C@@H](Cc1ccccn1)C(=O)O; 3Pal = N[C@@H](Cc1cccnc1)C(=O)O; 4Pal = N[C@@H](Cc1ccncc1)C(=O)O; hSer = N[C@@H](CCO)C(=O)O; Api = NC1(C(=O)O)CCNCC1; Dab = NCC[C@H](N)C(=O)O; Dap = NC[C@H](N)C(=O)O

This note sets out measurements from ChEMBL document CHEMBL4619728, “A chemically stable peptide agonist to neuromedin U receptor type 2” (Bioorg Med Chem, 2020).

T2 sequence (Q9GZQ4 whole entry): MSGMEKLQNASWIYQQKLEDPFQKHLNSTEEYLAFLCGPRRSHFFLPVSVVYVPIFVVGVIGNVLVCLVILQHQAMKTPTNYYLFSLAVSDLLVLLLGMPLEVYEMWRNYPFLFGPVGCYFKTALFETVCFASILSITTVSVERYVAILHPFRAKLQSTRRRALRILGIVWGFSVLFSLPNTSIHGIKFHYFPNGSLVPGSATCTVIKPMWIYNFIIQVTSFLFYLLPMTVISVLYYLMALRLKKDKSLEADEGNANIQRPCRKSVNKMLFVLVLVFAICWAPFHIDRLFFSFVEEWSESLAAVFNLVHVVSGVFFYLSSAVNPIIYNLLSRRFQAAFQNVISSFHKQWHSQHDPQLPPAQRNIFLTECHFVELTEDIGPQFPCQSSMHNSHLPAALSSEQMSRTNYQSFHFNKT
Neuromedin-U receptor 2 (Mus musculus), sequence (Q8BZ39 whole entry): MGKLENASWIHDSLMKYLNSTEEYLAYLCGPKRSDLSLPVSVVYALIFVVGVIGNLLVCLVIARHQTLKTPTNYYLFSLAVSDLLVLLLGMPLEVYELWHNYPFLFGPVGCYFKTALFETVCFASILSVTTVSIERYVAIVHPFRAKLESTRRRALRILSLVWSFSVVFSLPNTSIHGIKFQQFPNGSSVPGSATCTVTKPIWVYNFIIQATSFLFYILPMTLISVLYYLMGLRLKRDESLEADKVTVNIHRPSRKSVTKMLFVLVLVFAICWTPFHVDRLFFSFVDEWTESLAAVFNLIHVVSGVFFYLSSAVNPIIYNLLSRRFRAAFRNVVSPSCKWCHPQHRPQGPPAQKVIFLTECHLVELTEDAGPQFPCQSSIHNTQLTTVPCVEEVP

For the compound `CC(C)C[C@H](NC(=O)CCC1CCCCC1)C(=O)N[C@@H](CC(C)C)C(=O)N[C@H](C(=O)N1CCC[C@H]1C(=O)N[C@@H](CCCNC(=N)N)C(=O)N[C@@H](CC(N)=O)C(N)=O)[C@@H](C)O`, the outcome (in data set [1]; on Neuromedin-U receptor 2 [2]) was inactive.

Take `CC(C)C[C@H](NC(=O)CCC1CCCCC1)C(=O)N[C@@H](CC(C)C)C(=O)N[C@H](C(=O)N1CCC[C@H]1C(=O)N[C@@H](CCCNC(=N)N)C(=O)N[C@@H](CC(N)=O)C(N)=O)[C@H](C)O`: the result (in data set [1]; at Neuromedin-U receptor 2 [2]) was inactive.

With `CC(C)C[C@H](NC(=O)CCC1CCCCC1)C(=O)N[C@@H](CC(C)C)C(=O)NCC[C@H](N)C(=O)N1CCC[C@H]1C(=O)N[C@@H](CCCNC(=N)N)C(=O)N[C@@H](CC(N)=O)C(N)=O` (H-[Dab]([Leu-Leu-Propanoyl(3-cHex)])PRN-NH2), the Activity (in [3]; on Neuromedin-U receptor 2 [4]) was 6% each time.

Turning to `CC(C)C[C@H](NC(=O)CCC1CCCCC1)C(=O)N[C@@H](CC(C)C)C(=O)N[C@@H](CS)C(=O)N1CCC[C@H]1C(=O)N[C@@H](CCCNC(=N)N)C(=O)N[C@@H](CC(N)=O)C(N)=O` ({Propanoyl(3-cHex)}-LLCPRN-NH2), the outcome (in [1]; at Neuromedin-U receptor 2 [2]) was inactive.

For `CC(C)C[C@H](NC(=O)CCC1CCCCC1)C(=O)N[C@@H](CC(C)C)C(=O)N[C@@H](CC(=O)O)C(=O)N1CCC[C@H]1C(=O)N[C@@H](CCCNC(=N)N)C(=O)N[C@@H](CC(N)=O)C(N)=O` ({Propanoyl(3-cHex)}-LLDPRN-NH2), the outcome (in [5]; at Neuromedin-U receptor 2 [6]; in data set [3]; at Neuromedin-U receptor 2 [4]) was inactive.

Take `CC(C)C[C@H](NC(=O)CCC1CCCCC1)C(=O)N[C@@H](CC(C)C)C(=O)N[C@@H](CC(N)=O)C(=O)N1CCC[C@H]1C(=O)N[C@@H](CCCNC(=N)N)C(=O)N[C@@H](CC(N)=O)C(N)=O` ({Propanoyl(3-cHex)}-LLNPRN-NH2): the result (in data set [5]; at Neuromedin-U receptor 2 [6]) was inactive.

Turning to `COC[C@H](NC(=O)[C@H](CC(C)C)NC(=O)[C@H](CC(C)C)NC(=O)CCC1CCCCC1)C(=O)N1CCC[C@H]1C(=O)N[C@@H](CCCNC(=N)N)C(=O)N[C@@H](CC(N)=O)C(N)=O` ({Propanoyl(3-cHex)}-LLS(Me)PRN-NH2), the outcome (in [1]; on Neuromedin-U receptor 2 [2]) was inactive.

Regarding `CC(C)C[C@H](NC(=O)CCC1CCCCC1)C(=O)N[C@@H](CC(C)C)C(=O)N[C@@H](CO)C(=O)N1CCC[C@H]1C(=O)N[C@@H](CCCNC(=N)N)C(=O)N[C@@H](CC(N)=O)C(N)=O` ({Propanoyl(3-cHex)}-LLSPRN-NH2), the outcome (in [5]; at Neuromedin-U receptor 2 [6]) was inactive. Moreover, the outcome (in data set [3]; at Neuromedin-U receptor 2 [4]) was Active.

On to `CC(C)C[C@H](NC(=O)CCC1CCCCC1)C(=O)N[C@@H](CC(C)C)C(=O)N[C@@H](Cc1ccccn1)C(=O)N1CCC[C@H]1C(=O)N[C@@H](CCCNC(=N)N)C(=O)N[C@@H](CC(N)=O)C(N)=O` ({Propanoyl(3-cHex)}-LL[2Pal]PRN-NH2), for which, in data set [7], the Activity was 20 to 40%.

For the compound `CC(C)C[C@H](NC(=O)CCC1CCCCC1)C(=O)N[C@@H](CC(C)C)C(=O)N[C@@H](Cc1cccnc1)C(=O)N1CCC[C@H]1C(=O)N[C@@H](CCCNC(=N)N)C(=O)N[C@@H](CC(N)=O)C(N)=O` ({Propanoyl(3-cHex)}-LL[3Pal]PRN-NH2), in [7], the Activity lay in the range of 20 to 40%.

For the compound `CC(C)C[C@H](NC(=O)CCC1CCCCC1)C(=O)N[C@@H](CC(C)C)C(=O)N[C@@H](Cc1ccncc1)C(=O)N1CCC[C@H]1C(=O)N[C@@H](CCCNC(=N)N)C(=O)N[C@@H](CC(N)=O)C(N)=O` ({Propanoyl(3-cHex)}-LL[4Pal]PRN-NH2), the Activity in [7] fell in the range of 20 to 40%.

As for `CC(C)C[C@H](NC(=O)CCC1CCCCC1)C(=O)N[C@@H](CC(C)C)C(=O)NC1(C(=O)N2CCC[C@H]2C(=O)N[C@@H](CCCNC(=N)N)C(=O)N[C@@H](CC(N)=O)C(N)=O)CCNCC1` ({Propanoyl(3-cHex)}-LL[Api]PRN-NH2), the outcome in [7] was inactive.

As a reminder, the EC50 is the concentration that produces a half-maximal response. In the case of `CC(C)C[C@H](NC(=O)CCC1CCCCC1)C(=O)N[C@@H](CC(C)C)C(=O)N[C@@H](CCN)C(=O)N1CCC[C@H]1C(=O)N[C@@H](CCCNC(=N)N)C(=O)N[C@@H](CC(N)=O)C(N)=O` ({Propanoyl(3-cHex)}-LL[Dab]PRN-NH2), the remaining at 72 h, 50 µM in data set [8] turned out to be 98%; in data set [9], 95%. Moreover, the Activity entry on Neuromedin-U receptor 2 [10] was “Dose-dependent effect”; in data set [12], “Toxic”; in data set [13], “Toxic”; in data set [7] it was 100%. For the same compound, on Neuromedin-U receptor 2 [10], the EC50 came out at 2.2 nM. Besides, the outcome in data set [11] was Active.

Take `CC(C)C[C@H](NC(=O)CCC1CCCCC1)C(=O)N[C@@H](CC(C)C)C(=O)N[C@@H](CN)C(=O)N1CCC[C@H]1C(=O)N[C@@H](CCCNC(=N)N)C(=O)N[C@@H](CC(N)=O)C(N)=O` ({Propanoyl(3-cHex)}-LL[Dap]PRN-NH2): the remaining at 72 h, 50 µM was 92% in data set [14]; 64% in [15]; 81% in data set [8]; 89% in data set [16]; 87% in [9]. Besides, the remaining at 72 h in [17] was found to be 93%.

In the case of `CC(C)C[C@H](NC(=O)CCC1CCCCC1)C(=O)N[C@@H](CC(C)C)C(=O)N[C@@H](CCO)C(=O)N1CCC[C@H]1C(=O)N[C@@H](CCCNC(=N)N)C(=O)N[C@@H](CC(N)=O)C(N)=O` ({Propanoyl(3-cHex)}-LL[hSer]PRN-NH2), the result (in [1]; on Neuromedin-U receptor 2 [2]) was inactive.
